Measured values taken from patent US20220135591A1, “HETEROCYCLIC COMPOUNDS AS INHIBITORS OF MONOACYLGLYCEROL LIPASE (MAGL)” (Hoffmann-La Roche Inc., priority 2019, published 2022).

Biological target: T1, MAGL (Homo sapiens, UniProt Q99685)
T1 sequence (Q99685 1-303): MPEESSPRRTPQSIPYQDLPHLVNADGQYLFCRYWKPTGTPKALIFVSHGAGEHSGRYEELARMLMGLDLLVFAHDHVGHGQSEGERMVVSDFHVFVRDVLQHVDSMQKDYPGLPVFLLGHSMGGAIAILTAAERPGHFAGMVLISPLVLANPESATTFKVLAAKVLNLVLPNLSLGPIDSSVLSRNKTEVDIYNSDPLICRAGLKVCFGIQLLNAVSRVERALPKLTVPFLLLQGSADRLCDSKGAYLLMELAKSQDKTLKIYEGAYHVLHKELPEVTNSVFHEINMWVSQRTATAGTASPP
Assay: 2-AG assay: MAGL inhibitory activity by hydrolysis of 2-arachidonoylglycerol to arachidonic acid, mass spectrometry
Assay type: biochemical
Details: 2-AG assay (values marked [b])
Description: Alternatively, compounds were profiled for MAGL inhibitory activity by determining the enzymatic activity by following the hydrolysis of the natural substrate 2-arachidonoylglycerol (2-AG) resulting in arachidonic acid, which can be followed by mass spectrometry. This assay is hereinafter abbreviated “2-AG assay”.
The 2-AG assay was carried out in 384 well assay plates (PP, Greiner Cat #784201) in a total volume of 20 μL. Compound dilutions were made in 100% DMSO (VWR Chemicals 23500.297) in a polypropylene plate in 3-fold dilution steps to give a final concentration range in the assay from 12.5 μM to […]. 0.25 μL compound dilutions (100% DMSO) were added to 9 μL MAGL in assay buffer (50 mM TRIS (GIBCO, 15567-027), 1 mM EDTA (Fluka, 03690-100 mL), 0.01% (v/v) Tween. After shaking, the plate was incubated for 15 min at RT. To start the reaction, 10 μL 2-arachidonoylglycerol in assay buffer was added. The final concentrations in the assay was […] and 8 μM 2-arachidonoylglyerol. After shaking and 30 min incubation at RT, the reaction was quenched by the addition of 40 μL of ACN containing 4 μM of d8-arachidonic acid. The amount of arachidonic acid was traced by an online SPE system (Agilent Rapidfire) coupled to a triple quadrupole mass spectrometer (Agilent 6460). A C18 SPE cartridge (G9205A) was used in an ACN/water liquid setup. The mass spectrometer was operated in negative electrospray mode following the mass transitions 303.1→259.1 for arachidonic acid and 311.1→267.0 for d8-arachidonic acid. The activity of the compounds was calculated based on the ratio of intensities [arachidonic acid/d8-arachidonic acid].

Compound	IC50
CC(C)(C)Cn1cc(-c2ccc(C(=O)N3CCN(c4nc5nc(Cl)ccc5o4)C[C@H]3CO)cc2)nn1 (stereo in doubt) [Example 289, [(2S)-4-(5-chlorooxazolo[4,5-b]pyridin-2-yl)-2-(hydroxymethyl)piperazin-1-yl]-[4-[1-(2,2-dimethylpropyl)triazol-4-yl]phenyl]methanone]	63 nM
CC(C)(C)Cn1cc(-c2ccc(C(=O)N3CCN(c4nc5nc(Cl)ccc5o4)C[C@@H]3CO)cc2)nn1 (stereo in doubt) [Example 290, [(2R)-4-(5-chlorooxazolo[4,5-b]pyridin-2-yl)-2-(hydroxymethyl)piperazin-1-yl]-[4-[1-(2,2-dimethylpropyl)triazol-4-yl]phenyl]methanone]	2070 nM
Cc1ccc2oc(N3CCN(C(=O)c4ccc(-c5nnc(CC(C)(C)C)n5C)cc4)CC3)nc2n1 [Example 74, [4-[5-(2,2-dimethylpropyl)-4-methyl-1,2,4-triazol-3-yl]phenyl]-[4-(5-methyloxazolo[4,5-b]pyridin-2-yl)piperazin-1-yl]methanone]	327 nM
Cc1ccc2oc(N3CCN(C(=O)c4ccc(-c5cn(CC(C)(C)C)nn5)cc4)CC3)nc2n1 [Example 75, [4-[1-(2,2-dimethylpropyl)triazol-4-yl]phenyl]-[4-(5-methyloxazolo[4,5-b]pyridin-2-yl)piperazin-1-yl]methanone]	19 nM
Cn1c(-c2ccc(C(=O)N3CCN(c4nc5nc(Cl)ccc5o4)CC3)cc2)nnc1C(C)(C)C [Example 76, [4-(5-tert-butyl-4-methyl-1,2,4-triazol-3-yl)phenyl]-[4-(5-chlorooxazolo[4,5-b]pyridin-2-yl)piperazin-1-yl]methanone]	1310 nM
Cc1ccc2oc(N3CCN(C(=O)c4ccc(-c5nnc(C(C)(C)C)n5C)cc4)CC3)nc2n1 [Example 77, [4-(5-tert-butyl-4-methyl-1,2,4-triazol-3-yl)phenyl]-[4-(5-methyloxazolo[4,5-b]pyridin-2-yl)piperazin-1-yl]methanone]	2320 nM
CC(C)(C)c1nc(-c2ccc(C(=O)N3CCN(c4nc5nc(Cl)ccc5o4)CC3)cc2Cl)no1 [Example 78, [4-(5-tert-butyl-1,2,4-oxadiazol-3-yl)-3-chloro-phenyl]-[4-(5-chlorooxazolo[4,5-b]pyridin-2-yl)piperazin-1-yl]methanone]	4 nM
Cc1ccc2oc(N3CCN(C(=O)c4ccc(-c5noc(C(C)(C)C)n5)c(Cl)c4)CC3)nc2n1 [Example 79, [4-(5-tert-butyl-1,2,4-oxadiazol-3-yl)-3-chloro-phenyl]-[4-(5-methyloxazolo[4,5-b]pyridin-2-yl)piperazin-1-yl]methanone]	24 nM
CC(C)(C)c1nc(-c2c(F)cc(C(=O)N3CCN(c4nc5nc(Cl)ccc5o4)CC3)cc2F)no1 [Example 80, [4-(5-tert-butyl-1,2,4-oxadiazol-3-yl)-3,5-difluoro-phenyl]-[4-(5-chlorooxazolo[4,5-b]pyridin-2-yl)piperazin-1-yl]methanone]	21 nM
CC(C)(C)c1nc(-c2ccc(C(=O)N3CCN(c4nc5nc(Cl)ccc5o4)CC3)cc2C(F)(F)F)no1 [Example 81, [4-(5-tert-butyl-1,2,4-oxadiazol-3-yl)-3-(trifluoromethyl)phenyl]-[4-(5-chlorooxazolo[4,5-b]pyridin-2-yl)piperazin-1-yl]methanone]	9 nM
Cc1ccc2oc(N3CCN(C(=O)c4ccc(-c5nnc(C(C)(C)C)o5)c(C)c4)CC3)nc2n1 [Example 82, [4-(5-tert-butyl-1,3,4-oxadiazol-2-yl)-3-methyl-phenyl]-[4-(5-methyloxazolo[4,5-b]pyridin-2-yl)piperazin-1-yl]methanone]	37 nM
Cc1cc(C(=O)N2CCN(c3nc4nc(Cl)ccc4o3)CC2)ccc1-c1nnc(C(C)(C)C)o1 [Example 83, [4-(5-tert-butyl-1,3,4-oxadiazol-2-yl)-3-methyl-phenyl]-[4-(5-chlorooxazolo[4,5-b]pyridin-2-yl)piperazin-1-yl]methanone]	11 nM
CC(C)(C)Cn1ncc(-c2ccc(C(=O)N3CCN(c4nc5nc(Cl)ccc5o4)CC3)cc2F)n1 [Example 84, (4-(5-chlorooxazolo[4,5-b]pyridin-2-yl)piperazin-1-yl)(3-fluoro-4-(2-neopentyl-2H-1,2,3-triazol-4-yl)phenyl)methanone]	2 nM
Cc1ccc2oc(N3CCN(C(=O)c4ccc(-c5cnn(CC(C)(C)C)n5)c(F)c4)CC3)nc2n1 [Example 85, (3-fluoro-4-(2-neopentyl-2H-1,2,3-triazol-4-yl)phenyl)(4-(5-methyloxazolo[4,5-b]pyridin-2-yl)piperazin-1-yl)methanone]	5 nM
CC(C)(C)Cn1cc(-c2ccc(C(=O)N3CCN(c4nc5nc(Cl)ccc5o4)CC3)cc2F)nn1 [Example 86, (4-(5-chlorooxazolo[4,5-b]pyridin-2-yl)piperazin-1-yl)(3-fluoro-4-(1-neopentyl-1H-1,2,3-triazol-4-yl)phenyl)methanone]	2 nM
Cc1ccc2oc(N3CCN(C(=O)c4ccc(-c5cn(C(C)(C)C)nn5)cc4)CC3)nc2n1 [Example 87, (4-(1-(tert-butyl)-1H-1,2,3-triazol-4-yl)phenyl)(4-(5-methyloxazolo[4,5-b]pyridin-2-yl)piperazin-1-yl)methanone]	151 nM
CC(C)(C)n1cc(-c2ccc(C(=O)N3CCN(c4nc5nc(Cl)ccc5o4)CC3)cc2)nn1 [Example 88, (4-(1-(tert-butyl)-1H-1,2,3-triazol-4-yl)phenyl)(4-(5-chlorooxazolo[4,5-b]pyridin-2-yl)piperazin-1-yl)methanone]	71 nM
Cc1ccc2oc(N3CCN(C(=O)c4ccc(-c5ncn(C(C)(C)C)n5)c(Cl)c4)CC3)nc2n1 [Example 89, (4-(1-(tert-butyl)-1H-1,2,4-triazol-3-yl)-3-chlorophenyl)(4-(5-methyloxazolo[4,5-b]pyridin-2-yl)piperazin-1-yl)methanone]	25 nM
CC(C)(C)n1cnc(-c2ccc(C(=O)N3CCN(c4nc5nc(Cl)ccc5o4)CC3)cc2Cl)n1 [Example 90, (4-(1-(tert-butyl)-1H-1,2,4-triazol-3-yl)-3-chlorophenyl)(4-(5-chlorooxazolo[4,5-b]pyridin-2-yl)piperazin-1-yl)methanone]	16 nM
CC(C)(C)Cn1ncc(-c2c(F)cc(C(=O)N3CCN(c4nc5nc(Cl)ccc5o4)CC3)cc2F)n1 [Example 91, (4-(5-chlorooxazolo[4,5-b]pyridin-2-yl)piperazin-1-yl)(3,5-difluoro-4-(2-neopentyl-2H-1,2,3-triazol-4-yl)phenyl)methanone]	3 nM
Cc1ccc2oc(N3CCN(C(=O)c4cc(F)c(-c5cnn(CC(C)(C)C)n5)c(F)c4)CC3)nc2n1 [Example 92, (3,5-difluoro-4-(2-neopentyl-2H-1,2,3-triazol-4-yl)phenyl)(4-(5-methyloxazolo[4,5-b]pyridin-2-yl)piperazin-1-yl)methanone]	10 nM
CC(C)(C)Cn1cc(-c2c(F)cc(C(=O)N3CCN(c4nc5nc(Cl)ccc5o4)CC3)cc2F)nn1 [Example 93, (4-(5-chlorooxazolo[4,5-b]pyridin-2-yl)piperazin-1-yl)(3,5-difluoro-4-(1-neopentyl-1H-1,2,3-triazol-4-yl)phenyl)methanone]	7 nM
Cc1ccc2oc(N3CCN(C(=O)c4ccc(-c5cn(C67CC(C6)C7)nn5)cc4)CC3)nc2n1 [Example 94, (4-(1-(bicyclo[1.1.1]pentan-1-yl)-1H-1,2,3-triazol-4-yl)phenyl)(4-(5-methyloxazolo[4,5-b]pyridin-2-yl)piperazin-1-yl)methanone]	88 nM
O=C(c1ccc(-c2cn(C34CC(C3)C4)nn2)cc1)N1CCN(c2nc3nc(Cl)ccc3o2)CC1 [Example 95, (4-(1-(bicyclo[1.1.1]pentan-1-yl)-1H-1,2,3-triazol-4-yl)phenyl)(4-(5-chlorooxazolo[4,5-b]pyridin-2-yl)piperazin-1-yl)methanone]	42 nM
Cc1ccc2oc(N3CCN(C(=O)c4ccc(-c5ncn(C(C)(C)C)n5)c(C)c4)CC3)nc2n1 [Example 96, (4-(1-(tert-butyl)-1H-1,2,4-triazol-3-yl)-3-methylphenyl)(4-(5-methyloxazolo[4,5-b]pyridin-2-yl)piperazin-1-yl)methanone]	23 nM
Cc1cc(C(=O)N2CCN(c3nc4nc(Cl)ccc4o3)CC2)ccc1-c1ncn(C(C)(C)C)n1 [Example 97, (4-(1-(tert-butyl)-1H-1,2,4-triazol-3-yl)-3-methylphenyl)(4-(5-chlorooxazolo[4,5-b]pyridin-2-yl)piperazin-1-yl)methanone]	12 nM
